Where a name gives a salt, the structure may show the parent alone.
Columns and labels:
Troponin-I = assay: Plasma troponin-I, 6 hours infusion study; type: in vivo, dog; details: HF dogs n=6; for Plasma TnI: iv 10 μg/kg/min constant infusion
Protocol: (§1) Six heart failure dogs described in Example 1 were used. Studies using active drug and placebo were performed in each dog in random order a minimum of one week apart. After baseline hemodynamic, angiographic and echocardiographic measurements, GP-531 tartrate or placebo was administered as a continuous constant intravenous infusion for 6 hours. The dose of GP-531 tartrate was 10 μg/kg/min. Complete hemodynamic, angiographic and echocardiographic measurements were made during baseline, and at 1, 2, 3, 4, 5 and 6 hours after initiating drug infusion. In addition, myocardial oxygen consumption (MVO2) was measured at baseline and 4 and 6 hours after initiating drug or saline infusion. LV pressure-volume relationships (P-V Loops) were also measured at baseline and at 6 hours after initiating drug or saline infusion to assess load independent contractility and relaxation. Venous blood samples were obtained at baseline and hourly thereafter. Blood samples (at least […]) were centrifuged at 3000 rpm for 10 minutes and plasma withdrawn and placed in cryostorage tubes and stored upright at −20° C. until needed. Venous blood samples were used to evaluate plasma levels of troponin-I and plasma levels of n-terminal pro-brain natriuretic peptide (NT-proBNP).
Plasma biomarkers were measured in all dogs at all study time points. Troponin I (TnI) was determined in plasma based on the principle of the double antibody sandwich enzyme-linked immunosorbent assay (ELISA) (Hirano, T., et al, Immunol Today 1990, 11:443-449) and NT-pro-BNP based on competitive ELISA (Bonow, R. O. Circulation 1996, 93:1946-1950). Both biomarkers were assayed using commercially available assay kits. Kits for NT-proBNP and TnI were purchased from ALPCO Diagnostics, Salem, N.H. Using standard curves and software, the concentration of each biomarker was expressed as ng/ml for TnI and fmol/ml for NT-proBNP.

[1] = Octanol:water partition coefficient; type: physicochemical; details: read-out: Octanol: water partition coefficient (log P)
Text: Administering a better absorbed more lipophilic prodrug, which is subsequently hydrolysed to GP531, achieves an increase in the systemic availability of GP531.

[2] = system: dogs with advanced heart failure; assay: Single-dose 6 hours infusion study, hemodynamic, ventriculographic, echocardiographic, MVO2 and P-V loop measures; type: in vivo, dog
Protocol: Studies were performed in purpose-bred, healthy and conditioned mongrel dogs weighing between 20 and 30 kg. The study was approved by Henry Ford Health System Institutional Animal Care and Use Committee and conformed to the National Institute of Health “Guide and Care for Use of Laboratory Animals” and the “Position of the American Heart Association on Research Animal Use” (Position of the American Heart Association on Research Animal Use. Circulation 1985; 71; 49A-50A).
Chronic LV dysfunction and failure was produced by multiple sequential intracoronary embolizations with polystyrene Latex; coronary microembolizations were performed during cardiac catheterization under general anesthesia and sterile conditions (Sabbah H N, et al. Am J Physiol (1991) 260:H1379-84; Sabbah H N, et al. Circulation (1994) 89:2852-9; Sabbah H N, et al. Am J Cardiol 99:41 A-46A, (2007)). Anesthesia was induced using a combination of intravenous injections of oxymorphone hydrochloride (0.22 mg/kg) and diazepam (0.2-0.6 mg/kg). Plane of anesthesia was maintained throughout the study using 1% to 2% isoflurane. Left and right heart catheterizations were performed via a femoral arteriotomy and venotomy. Coronary microembolizations were discontinued when LV ejection fraction, determined angiographically, was about 25%. A period of 2 weeks was allowed after the last microembolization to ensure that infarctions produced by the last microembolizations have completely healed and heart failure was established before the study is undertaken.
as §1
Study Primary End-Points were: (1) change in LV ejection fraction determined from ventriculography; (2) change in LV end-systolic and end-diastolic volume determined from ventriculography; (3) change in MVO2; and (4) change in the slope of the LV end-systolic and end-diastolic P-V relationship.
All hemodynamic measurements were made during left and right heart catheterizations in anesthetized dogs at each specified study time point. Heart rate (HR), mean aortic pressure (mAoP), LV end-diastolic pressure (LVEDP), stroke volume (SV), cardiac output (CO) and systemic vascular resistance (SVR) were measured at each study time point. Left ventriculograms were performed during cardiac catheterization after completion of the hemodynamic measurements. Left ventriculograms were obtained with the dog placed on its right side and digitally recorded during the injection of 20 ml of contrast material (RENO-M-60 Squibb, Princeton, N.J.). Correction for image magnification was made using a radiopaque grid placed at the level of the LV. […]

[3] = in man; cited from earlier work
A2 receptors = assay: Ligand status at adenosine A2 receptor; type: binding
[4] = HF dogs n=6, iv 10 μg/kg/min for 6 h
[5] = HF dogs n=6, iv 10 μg/kg/min for 6 h, vs baseline
[6] = HF dogs n=6, iv 10 μg/kg/min constant infusion, 1 h
[7] = HF dogs n=6, iv 10 μg/kg/min constant infusion, 2 h
[8] = HF dogs n=6, iv 10 μg/kg/min constant infusion, 3 h
[9] = HF dogs n=6, iv 10 μg/kg/min constant infusion, 4 h
[10] = HF dogs n=6, iv 10 μg/kg/min constant infusion, 5 h
[11] = HF dogs n=6, iv 10 μg/kg/min constant infusion, 6 h
[12] = HF dogs n=6, iv 10 μg/kg/min for 6 h, time-dependent

## NC(=O)c1ncn(C2OC(CNCc3ccccc3)C(O)C2O)c1N [GP-531, 5-amino-1-β-D-(5-benzylamino-5-deoxy-1-β-D-ribofuranosyl)imidazole-4 carboxamide]
Troponin-I; 1 h
  Plasma TnI: 0.57 ± 0.02 pg/mL
Troponin-I; 2 h
  Plasma TnI: 0.58 ± 0.02 pg/mL
Troponin-I; 3 h
  Plasma TnI: 0.38 ± 0.03 pg/mL
Troponin-I; 4 h
  Plasma TnI: 0.43 ± 0.03 pg/mL
Troponin-I; 5 h
  Plasma TnI: 0.41 ± 0.03 pg/mL
Troponin-I; 6 h
  Plasma TnI: 0.42 ± 0.06 pg/mL
Troponin-I; iv 10 μg/kg/min for 6 h
  Effect on plasma troponin-I: significantly reduced
[1]
  logP: -0.91
[2]; HF dogs n=6, iv 10 μg/kg/min
  Time after initiating drug infusion at which improvements (EDV, ESV, EF, FAS) occurred: 1 to 3 h
[2]; [4]
  Acute decompensation: None of the dogs treated with GP-531 developed acute decompensation
  Changes in MVO2: absence of any changes
  Death: none died
  Effect on peak +dP/dt: no significant effects
  Effect on peak −dP/dt: no significant effects
[2]; HF dogs n=6, iv 10 μg/kg/min for 6 h, time-dependent, significance at 5 hours
  Effect on LVEDP: significantly decreased
[2]; [5]
  Effect on CO: significant increase
  Effect on EDV: modest but statistically significant effect on reducing
  Effect on EF (LVEF): increased
  Effect on ESV: significantly decreased
  Effect on FAS: increased
  Effect on SV: significant increase
  Effect on SVR: decrease
[2]; HF dogs n=6, iv 10 μg/kg/min, 6 h vs baseline
  Effect on slope of the ESPVR: significantly increased
[3]
  Oral bioavailability: ~10%
A2 receptors
  Ligand for A2 receptors: has not been shown to be a ligand

## NC(=O)c1ncn(C2OC(CNCc3ccccc3)C(O)C2O)c1N (stereo not drawn) [GP-531 tartrate]
[2]; [6]
  Cardiac output (CO): 1.42 ± 0.08 L/min
  Deceleration time of early mitral inflow velocity (DCT): 100 ± 5 ms
  Ei/Ai (ratio of mitral inflow time-velocity integrals): 1.78 ± 0.23
  Heart rate (HR): 78 ± 1 beats/min
  LV end-diastolic circumferential wall stress (EDWS): 53 ± 7 gm/cm^2
  LV end-diastolic pressure (LVEDP): 12 ± 1.1 mmHg
  LV end-diastolic volume (EDV): 64 ± 2 mL
  LV end-systolic volume (ESV): 46 ± 2 mL
  LV fractional area of shortening (FAS): 26 ± 0.8%
  Mean aortic pressure (mAoP): 77 ± 3 mmHg
  PE/PA (ratio of peak mitral flow velocities): 1.7 ± 0.10
  Stroke volume (SV): 18 ± 1.0 mL
  Systemic vascular resistance (SVR): 4368 ± 248 dynes-sec-cm^−5
[2]; [7]
  Cardiac output (CO): 1.47 ± 0.11 L/min
  Deceleration time of early mitral inflow velocity (DCT): 109 ± 4 ms
  Ei/Ai (ratio of mitral inflow time-velocity integrals): 2.03 ± 0.23
  Heart rate (HR): 78 ± 2 beats/min
  LV end-diastolic circumferential wall stress (EDWS): 47 ± 5 gm/cm^2
  LV end-diastolic pressure (LVEDP): 12 ± 0.9 mmHg
  LV end-diastolic volume (EDV): 63 ± 2 mL
  LV end-systolic volume (ESV): 44 ± 2 mL
  LV fractional area of shortening (FAS): 27 ± 1.3 %
  Mean aortic pressure (mAoP): 77 ± 3 mmHg
  PE/PA (ratio of peak mitral flow velocities): 1.8 ± 0.10
  Stroke volume (SV): 19 ± 1.2 mL
  Systemic vascular resistance (SVR): 4250 ± 327 dynes-sec-cm^−5
[2]; [8]
  Cardiac output (CO): 1.53 ± 0.08 L/min
  Deceleration time of early mitral inflow velocity (DCT): 113 ± 6 ms
  Ei/Ai (ratio of mitral inflow time-velocity integrals): 2.40 ± 0.29
  Heart rate (HR): 79 ± 3 beats/min
  LV end-diastolic circumferential wall stress (EDWS): 47 ± 6 gm/cm^2
  LV end-diastolic pressure (LVEDP): 12 ± 1.1 mmHg
  LV end-diastolic volume (EDV): 63 ± 2 mL
  LV end-systolic volume (ESV): 44 ± 2 mL
  LV fractional area of shortening (FAS): 29 ± 0.9 %
  Mean aortic pressure (mAoP): 79 ± 3 mmHg
  PE/PA (ratio of peak mitral flow velocities): 1.9 ± 0.07
  Stroke volume (SV): 19 ± 0.8 mL
  Systemic vascular resistance (SVR): 4157 ± 212 dynes-sec-cm^−5
[2]; [9]
  Cardiac output (CO): 1.63 ± 0.05 L/min
  Deceleration time of early mitral inflow velocity (DCT): 113 ± 5 ms
  Ei/Ai (ratio of mitral inflow time-velocity integrals): 2.51 ± 0.21
  Heart rate (HR): 80 ± 3 beats/min
  LV end-diastolic circumferential wall stress (EDWS): 44 ± 7 gm/cm^2
  LV end-diastolic pressure (LVEDP): 11 ± 1.2 mmHg
  LV end-diastolic volume (EDV): 63 ± 2 mL
  LV end-systolic volume (ESV): 42 ± 2 mL
  LV fractional area of shortening (FAS): 31 ± 1.5 %
  Mean aortic pressure (mAoP): 79 ± 3 mmHg
  Myocardial oxygen consumption (MVO2): 114 ± 14 μmols/min
  PE/PA (ratio of peak mitral flow velocities): 2.1 ± 0.09
  Stroke volume (SV): 21 ± 0.9 mL
  Systemic vascular resistance (SVR): 3895 ± 168 dynes-sec-cm^−5
[2]; [10]
  Cardiac output (CO): 1.64 ± 0.07 L/min
  Deceleration time of early mitral inflow velocity (DCT): 118 ± 6 ms
  Ei/Ai (ratio of mitral inflow time-velocity integrals): 2.68 ± 0.23
  Heart rate (HR): 79 ± 4 beats/min
  LV end-diastolic circumferential wall stress (EDWS): 43 ± 7 gm/cm^2
  LV end-diastolic pressure (LVEDP): 11 ± 1.2 mmHg
  LV end-diastolic volume (EDV): 62 ± 2 mL
  LV end-systolic volume (ESV): 41 ± 2 mL
  LV fractional area of shortening (FAS): 31 ± 1.4 %
  Mean aortic pressure (mAoP): 77 ± 2 mmHg
  PE/PA (ratio of peak mitral flow velocities): 2.2 ± 0.05
  Stroke volume (SV): 21 ± 1.1 mL
  Systemic vascular resistance (SVR): 3823 ± 221 dynes-sec-cm^−5
[2]; [11]
  Cardiac output (CO): 1.69 ± 0.04 L/min
  Deceleration time of early mitral inflow velocity (DCT): 118 ± 4 ms
  Ei/Ai (ratio of mitral inflow time-velocity integrals): 2.77 ± 0.23
  Heart rate (HR): 81 ± 4 beats/min
  LV end-diastolic circumferential wall stress (EDWS): 41 ± 7 gm/cm^2
  LV end-diastolic pressure (LVEDP): 10 ± 1.2 mmHg
  LV end-diastolic volume (EDV): 62 ± 2 mL
  LV end-systolic volume (ESV): 41 ± 2 mL
  LV fractional area of shortening (FAS): 32 ± 1.1 %
  Mean aortic pressure (mAoP): 76 ± 3 mmHg
  Myocardial oxygen consumption (MVO2): 115 ± 12 μmols/min
  PE/PA (ratio of peak mitral flow velocities): 2.2 ± 0.06
  Slope of end-diastolic pressure-volume relation (EDPVR): 0.296 ± 0.018 mmHg/ml
  Slope of end-systolic pressure volume relation (ESPVR): 2.43 ± 0.35 mmHg/ml
  Stroke volume (SV): 21 ± 0.8 mL
  Systemic vascular resistance (SVR): 3571 ± 113 dynes-sec-cm^−5
[2]; [4]
  Ventricular or atrial arrhythmias: did not evoke any ventricular or atrial arrhythmias
[2]; [12]
  Effect on DCT: increased
  Effect on EDWS: decreased significantly
  Effect on Ei/Ai: increased significantly
  Effect on PE/PA: increased significantly
[2]; [5]
  Effect on HR: no effect
  Effect on mAoP: no effect
[2]; HF dogs n=6, iv 10 μg/kg/min for 6 h, vs baseline, listed as GP-531 tartrate salt
  Effect on EF (LVEF): increase
[2]; HF dogs n=6, iv 10 μg/kg/min, 6 hours, not statistically significant
  Effect on slope of the EDPVR: tended to decrease
[2]; HF dogs, iv 10 μg/kg/min for 6 hours
  LV systolic and diastolic function: can improve both LV systolic and diastolic function
